According to patent US20150274690A1, “Strigolactone Compositions And Uses Thereof” (Asilomar Bio, Inc., priority 2013, published 2015):

Legend:
[1] = system: Dekalb 67-86 RR corn seedlings; test: Acute water stress in corn seedlings (leaf rolling score); assay type: in vivo; conditions: 40 mL of 0.1 mM or 1.0 mM; 6th day without irrigation
Protocol: Corn seedlings were scored as unstressed, moderately water stressed and severely water stressed as measured by visual inspection of leaf rolling, a response of corn to water stress. Dekalb 67-86 RR corn seeds were planted and then irrigated through 7 days after emergence in a greenhouse setting. Seedlings were then treated with 40 mL of water, 0.1 mM AB01 or 1.0 mM AB01 and irrigation ceased. On the 6th day without irrigation, seedlings were scored for water stress. Seedlings with open leaves were scored as unstressed; seedlings with partial leaf rolling were scored as moderately stressed; seedlings with completely rolled leaves were scored as severely stressed.

[2] = system: corn (Dekalb hybrid 68-05); test: Corn field trial, Hays County, Tex., not irrigated; assay type: in vivo
Protocol: Field trial was performed from April to July 2014 in Hays County, Tex. Dekalb hybrid 68-05 was planted at a density of 25,000 plants per acre (30″rows with 8″spacing). The field was top-dressed with 80 lbs/ac nitrogen. The field was not irrigated. AB01 treated plots were sprayed with a 2 gram per acre dose at the tasseling (VT) stage. Spraying was accomplished by resuspending solid AB01 in 0.5 mL of acetone, and diluting in water for a spray volume of 1 gallon per 500 square feet. Experiments were performed in triplicate […] The fraction of fertilized ears was measured by visual inspection of the ear silk at the R2-R3 stage. Unfertilized silks that appear yellow/green, while fertilized silks appear reddish brown. Completely unfertilized ears have silks that are completely yellow/green, fertilized ears appear brown, while ears with an incomplete degree of fertilized silks have a mixed population of silks. […] Ears were visually inspected at harvest to monitor kernel set (the number of fully formed kernels in the mature ear). […] Ears volume was measured in the field at the R3 stage to calculate ear volume. The length and circumference of each ear was measure, and volume was calculated by treating the ear as a cylinder. Approximately 100 ears from each plot were measured. […] After harvest, ears were shelled and kernels counted and weighed to quantitate the ‘thousand kernel weight’ (TKW), or average mass of kernels in the trial. AB01 treated plots yielded kernels averaging 30% higher mass than control plots. Ears from control and treated plots were harvested, shelled, and moisture tested to quantitate dry mass. Control plots averaged 120 bushels per acre, while AB01 treated plots averaged 143 bushels per acre, a 19% increase. Grain yield is calculated at 15% moisture, a standard measure of harvest output.

[3] = system: Tomato seedlings; test: Salinity tolerance in tomato seedlings; assay type: in vivo; conditions: 10 mg/mL; 29.2 g/L NaCl irrigation 24 hours after treatment; 6 hours after salt irrigation
Protocol: Tomato seedlings were treated with 10 mg/mL AB01 or mock treated. 24 hours after treatment, they were irrigated with 250 mL water containing 29.2 g/L salt (NaCl).

[4] = system: Striga; test: Field trial in Striga infested fields, Siaya County, Kenya; assay type: in vivo; conditions: 1 gram per acre sprayed 1 week prior to planting
Protocol: Field trial was performed from August 2013 to January 2014 in Siaya County, Kenya. AB01 treated plots were sprayed with a 1 gram per acre dose 1 week prior to planting. Treatment was accomplished by resuspending solid AB01 in 1 mL of acetone, and diluting in 4000 L of water. 3 replicate treated and untreated plots (100 m2 each) were performed. […] (C) The biomass of Striga from each plot was collected and measured after harvest.

[5] = system: cut flowers; test: Vase life extension of cut flowers; assay type: in vivo
Protocol: This example determines the effect of the application of a plant propagation material comprising strigolactone or analogs or mimics thereof on the onset of water-stress symptoms in cut flowers during storage, shipping, and/or life in retail or consumer environment. We test a wide range of concentrations to focus our investigations of the effects of the plant propagation material on cut flowers. Indicators of water-limitation stress in flowers are measured (approximately daily). We take cut flowers, apply a plant propagation material in irrigation water, and place in a normal storage environment (e.g., regular day-night cycles, room temperature). The concentration of the strigolactone or analog or mimic thereof in the plant propagation material spanned a concentration range from 1 gram per liter to 1 picogram per liter. We then monitor plants daily for the presence of water stress indicators and shelf life, such as flower and leaf rolling (wilting), turgor of stems, chlorophyll content, and loss of petals.
Various concentrations of the strigolactone mimic were added to the irrigation water of the cut flowers. The vase life for cut flowers treated with water-only was approximately 4 days, whereas the vase life for the cut flowers treated with the plant propagation material was approximately 6-7 days.

[6] = system: Alfalfa; test: Salinity tolerance in alfalfa seedlings; assay type: in vivo; conditions: 1 mg/mL; irrigated every 48 hours with 35 g/L NaCl; after 5 days
Protocol: Alfalfa was grown from seeds for 14 days. Seedlings were treated with 1 mg/mL AB01 or mock treated. After treatment, plants were irrigated with 100 mL water containing 35 g/L dissolved salt (NaCl). Irrigation was performed every 48 hours and plants monitored for symptoms of salinity stress.

[7] = system: Alfalfa; test: Drought tolerance in alfalfa seedlings; assay type: in vivo; conditions: 1 mg/mL; irrigation stopped; approximately 7 days post-treatment
Protocol: Alfalfa was grown from seeds for 14 days. Seedlings were treated with 1 mg/mL AB01 or mock treated. Irrigation was stopped after treatment and seedlings were monitored for symptoms of water limitation stress.

[8] = system: A. thaliana mutants lacking MAXI cytochrome P450 activity; test: Complementation of Arabidopsis mutant deficient in strigolactone biosynthesis; assay type: in vivo, Arabidopsis thaliana; conditions: 1 uM as an irrigation supplement
Protocol: To further validate the bioactivity of AB01 we tested whether the compound could complement mutants of the model plant Arabidopsis thaliana that are deficient in strigolactone biosynthesis. […] We grew MAXI A. thaliana under standard conditions and added 1 uM AB01 as an irrigation supplement, or a mock treatment. […] Thus, the synthetic AB01 is sufficiently similar to strigolactone to both to trigger Striga germination as well as substitute for the natural compound in a model plant.

[9] = system: Seeds of Striga asiatica; test: Triggering Striga germination (seed germination bioassay); assay type: in vivo; conditions: for bioactivity: induction of Striga germination (in words): radicle emergence from seeds
Protocol: (B) Bioactivity of synthetic SL. Seeds of Striga asiatica were exposed to SL (right) or a mock treatment (left). […] (C) Synthetic biological pathway for the production of SL in yeast, consisting of enzymes of plant and microbial origin. We tested the ability of AB01 to trigger the germination of Striga seeds. Seeds of Striga asiatica were conditioned by incubation in the dark at 30 degrees for 7 days, and dilutions of the AB01 material in water were applied. We observed that concentrations of 1 nanogram per liter and greater were able to trigger germination of approximately 30% of the seeds, which is similar to published efficiencies and activity for plant-derived strigolactone (FIG. 1A-B).

[10] = system: Seeds of O. cumana; test: Germination triggering of parasitic weed seeds; assay type: in vivo; conditions: 48 hours post-treatment; AB01 compared with 5-dS
Protocol: Seeds of O. cumana were primed by incubation on glass fiber filters in darkness at room temperature for 3 days. Specified concentrations of AB01 or 5-dS were applied and seeds were monitored at 48 hours post-treatment. Germination was evident by appearance of haustoria. Experiments were performed in triplicate.

[11] = system: Wheat; test: Drought tolerance in greenhouse wheat; assay type: in vivo; conditions: 1 mg in 100 mL water; irrigation stopped; 7 days post treatment
Protocol: Wheat was grown in greenhouse conditions from seed for 6 weeks with adequate irrigation. Plants were treated with 1 mg of AB01 resuspended in acetone and diluted in 100 mL water, or mock treated as a control. Irrigation was stopped and plants monitored for symptoms of drought stress.

[12] = system: Striga hermonthica seeds; conditions: 10^-8 M concentrations; cited from earlier work

For `CC1=CC(O/C=C2\C(=O)O[C@]3(C)CCC4C(C)(C)CCC[C@]4(C)[C@@H]23)OC1=O` (stereo partly shown) [AB01], the “fraction of seedlings scored unstressed / severely water stressed” value [1] was “decreased the fraction of severely stressed seedlings while increasing the fraction of unstressed seedlings in a dose-dependent manner”, the “increase of harvest grain yield over control plots” value ([2]; 2 gram per acre spray at VT) was 19% and the “average kernel mass (thousand kernel weight), higher than control plots” value ([2]; 2 gram per acre spray at VT, after harvest) was 30%. The harvest grain yield ([2]; 2 gram per acre spray at VT, calculated at 15% moisture, control plots 120) was 143 bushels per acre, the ear volume ([2]; 2 gram per acre spray at VT, measured at R3 stage, vs mock) was “significantly higher volumes” and the “kernel set at harvest” value ([2]; 2 gram per acre spray at VT, visual inspection, vs mock) was “more complete kernel set and few signs of kernel abortion”. The “fraction of fertilized / unfertilized ears” value ([2]; 2 gram per acre spray at tasseling (VT), ear silk inspected at R2-R3 stage, vs mock) was “decreased the fraction of unfertilized ears while increasing the fraction of fertilized ears”, the “symptoms of salinity shock (wilting)” value [3] was “appeared unstressed” and the “Striga emergence and Striga-related stress in plots” value [4] was “few signs of Striga-related stress and parasite emergence”. For the same molecule, the “biomass of Striga per plot after harvest” value [4] was “significant reduction in the mass of Striga present”, the “count of emergent Striga per plot” value [4] was “few parasites in treated plots” and the “increase of grain yields compared to untreated plots” value [4] was 25%. The “vase life of cut flowers” value ([5]; added to irrigation water, various concentrations, water-only approximately 4 days) was 6 to 7 days, the vase life extension ([5]; versus water-only control) was 50-60% and the “symptoms of salinity stress (chlorosis, vigor)” value [6] was “displayed significantly higher vigor”. For the same molecule, the “appearance of seedlings under water limitation stress” value [7] was “treated seedlings appeared robust”, the “impact on phenotype of strigolactone-deficient mutant” value [8] was “visible impact on the phenotype of the mutant” and the “fraction of Striga seeds triggered to germinate” value ([9]; at 1 nanogram per liter and greater) was “approximately 30%”. For the same molecule, the “concentrations able to trigger germination of Striga seeds” value ([9]; dilutions in water, seeds conditioned in the dark at 30 degrees for 7 days) was ≥ 1 nanogram per liter, the “bioactivity: induction of Striga germination (in words)” value (“bioactivity: induction” for short) [9] was “graded dose-response behavior” and the “bioactivity: induction” value ([9]; listed as Synthetic SL) was “potent bioactivity, with nanograms of material inducing germination of Striga seeds”. The “bioactivity: induction” value ([9]; listed as synthetic SL) was “displayed bioactivity”, the “bioactivity: induction” value ([9]; listed as synthetically produced SL) was “effective at germinating seeds of Striga asiatica” and the “germination triggering efficiency (appearance of haustoria)” value [10] was “Significant differences in germination triggering efficiency”. For the same molecule, the “symptoms of drought stress (wilting)” value [11] was “appeared vigourous”.
In the case of `CC1=C[C@H](O/C=C2/C(=O)O[C@@H]3C4=C(C[C@H]23)C(O)CCC4(C)C)OC1=O` (single isomer, unassigned; (+)) [(+)-strigol, (+)-Strigol], the “activity in germination studies of Striga hermonthica seeds” value [12] is listed as 93%.
With `CC1=C[C@H](O/C=C2/C(=O)O[C@@H]3C4=C(CCCC4(C)C)CC23)OC1=O` (stereo partly shown) [5-dS, 5-deoxystrigol, reference compound] the “germination triggering efficiency (appearance of haustoria)” value [10] was “Significant differences in germination triggering efficiency”.
In the case of `CC1=CC(OC=C2C(=O)OC3C4=C(CC23)C(O)CCC4(C)C)OC1=O` (stereo not drawn) [ent-strigol], the “activity in germination studies of Striga hermonthica seeds” value [12] is listed as 22%.
